In assay [1] the test system is Escherichia coli. Briefly: Antibacterial activity against Escherichia coli incubated for 20 hrs. Type of assay: functional.
In assay [2] the test system is Plasmodium falciparum. The experiment in a line: Antiparasitic activity against CQ-sensitive Plasmodium falciparum 3D7 at asexual stage infected in O Rh+ erythrocytes by ELISA. The note with it: 3D7, Erythrocyte. Type of assay: functional, organism-based. For orientation: An ELISA detects its analyte on a solid surface through an enzyme-linked reagent.
In assay [3] the target is T1, 1-deoxy-D-xylulose 5-phosphate reductoisomerase (Mycobacterium tuberculosis, UniProt P9WNS1).
T1 sequence (P9WNS1 whole entry): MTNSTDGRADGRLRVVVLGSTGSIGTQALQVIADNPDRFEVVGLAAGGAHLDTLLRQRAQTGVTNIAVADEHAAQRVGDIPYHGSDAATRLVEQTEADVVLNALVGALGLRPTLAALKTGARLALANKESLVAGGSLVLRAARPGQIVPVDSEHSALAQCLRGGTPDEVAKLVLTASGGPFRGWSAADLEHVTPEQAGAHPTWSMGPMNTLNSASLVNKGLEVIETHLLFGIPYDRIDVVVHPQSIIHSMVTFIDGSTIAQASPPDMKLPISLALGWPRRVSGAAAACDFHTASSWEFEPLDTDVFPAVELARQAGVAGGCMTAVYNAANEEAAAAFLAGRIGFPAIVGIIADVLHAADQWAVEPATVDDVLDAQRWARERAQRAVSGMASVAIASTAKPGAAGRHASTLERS
Briefly: Inhibition of recombinant Mycobacterium tuberculosis DXR extracted from Escherichia coli M15 using DXP as substrate by NADPH consumption based photometric assay.

Assay [4] relates to Escherichia coli. Briefly: Antibacterial activity against Escherichia coli ATCC 25922 […] by CLSI based broth microdilution assay. Type of assay: functional. (In general: Broth dilution looks for growth in wells or tubes with falling amounts of substance.)
The test system of assay [5] is Mycobacterium tuberculosis. Briefly: Antibacterial activity against wild-type Mycobacterium tuberculosis H37Rv incubated for 5 days by CLSI based broth microdilution assay. The following applies: 120 h, time 5 day. Type of assay: functional.
Assay [6] is described as follows: Selectivity ratio of IC50 for antiparasitic activity against multidrug-resistant Plasmodium falciparum Dd2 at asexual stage infected in O Rh+ erythrocytes to IC50 for inhibition of Plasmodium falciparum DXR extracted from Escherichia coli.
Assay [7] concerns Plasmodium falciparum. The experiment in a line: Antiparasitic activity against multidrug-resistant Plasmodium falciparum Dd2 at asexual stage infected in O Rh+ erythrocytes by ELISA method. Type of assay: functional, organism-based. The following applies: Dd2, Erythrocyte.
For assay [8], the target named is T2, 1-deoxy-D-xylulose 5-phosphate reductoisomerase, apicoplastic (Plasmodium falciparum (isolate 3D7), UniProt Q8IKG4).
T2 sequence (Q8IKG4 whole entry): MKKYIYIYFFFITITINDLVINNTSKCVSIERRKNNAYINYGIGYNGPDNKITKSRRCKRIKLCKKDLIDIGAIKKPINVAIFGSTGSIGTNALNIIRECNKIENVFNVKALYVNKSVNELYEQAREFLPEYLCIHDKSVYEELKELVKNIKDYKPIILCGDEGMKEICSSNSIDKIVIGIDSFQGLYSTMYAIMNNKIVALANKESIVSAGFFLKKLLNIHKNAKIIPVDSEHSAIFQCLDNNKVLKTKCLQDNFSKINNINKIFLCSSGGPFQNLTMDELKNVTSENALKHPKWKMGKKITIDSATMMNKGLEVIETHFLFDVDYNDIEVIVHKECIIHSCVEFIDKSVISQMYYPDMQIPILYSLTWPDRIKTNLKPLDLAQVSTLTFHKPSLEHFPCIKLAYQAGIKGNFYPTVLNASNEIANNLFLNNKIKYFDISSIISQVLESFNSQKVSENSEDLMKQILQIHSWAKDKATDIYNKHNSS
Briefly: Inhibition of Plasmodium falciparum DXR extracted from Escherichia coli using DXP as substrate by NADPH consumption based photometric assay.

Assay [9] deals with T3, 1-deoxy-D-xylulose 5-phosphate reductoisomerase (Escherichia coli K-12, UniProt P45568).
T3 sequence (P45568 whole entry): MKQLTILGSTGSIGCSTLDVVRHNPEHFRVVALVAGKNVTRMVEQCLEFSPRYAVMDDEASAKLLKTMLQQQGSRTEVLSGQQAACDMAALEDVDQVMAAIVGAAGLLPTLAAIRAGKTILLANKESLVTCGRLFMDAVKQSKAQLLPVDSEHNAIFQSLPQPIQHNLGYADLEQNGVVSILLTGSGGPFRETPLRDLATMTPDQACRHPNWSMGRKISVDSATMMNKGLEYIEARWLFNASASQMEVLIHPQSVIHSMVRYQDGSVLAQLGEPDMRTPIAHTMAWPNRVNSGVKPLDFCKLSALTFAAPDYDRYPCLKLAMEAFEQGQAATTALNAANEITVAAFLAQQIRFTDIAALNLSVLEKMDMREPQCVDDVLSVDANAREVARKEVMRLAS
Briefly: Inhibition of recombinant Escherichia coli DXR extracted from Escherichia coli M15 using DXP as substrate by NADPH consumption based photometric assay.

Assay [10] can be described thus: Selectivity ratio of IC50 for antiparasitic activity against CQ-sensitive Plasmodium falciparum 3D7 at asexual stage infected in O Rh+ erythrocytes to IC50 for inhibition of Plasmodium falciparum DXR extracted from Escherichia coli.

Values after ≈ are worked out from the molar mass of the structure shown. Where only a bound is given, the exact number is not on record here.

In the case of `O=CN(O)CCCP(=O)(O)O` [FOSMIDOMYCIN], in the assay on Escherichia coli [1], the MIC was determined as 6.25 µM (≈ 1.14 µg/mL).
Consider `CN(O)C(=O)CSC(c1cccc(OCCCCCCN2C(=O)c3ccccc3C2=O)c1)P(=O)(O)O` (racemic), for which the IC50 with Plasmodium falciparum [2] is over 12000 nM; in assay [3], 1700 nM; with Plasmodium falciparum [7], 9800 nM; in [8] it was 97 nM; in [9], 68 nM. Besides, the MIC (in the assay with Escherichia coli [4]; in assay [5]) was over 100 µM in each case. Moreover, the “Ratio IC50” value in assay [6] is given as 100; in [10] it was over 120.
In the case of `CCCCCCOc1ccc(C(SCC(=O)N(C)O)P(=O)(O)O)cc1` (racemic), the IC50 in the assay with Plasmodium falciparum [2] stood at 8000 nM; in assay [3] it was 92 nM; with Plasmodium falciparum [7] it was 5800 nM; in [8] it was 48 nM; in assay [9] it was 17 nM. The minimal inhibitory concentration (MIC) (in the assay with Escherichia coli [4]; in assay [5]) was over 100 µM in each case. Besides, the “Ratio IC50” value is listed as 120 in [6] and 170 in assay [10].
On to `CN(O)C(=O)CSC(c1ccc(OCCCCCCN2C(=O)c3ccccc3C2=O)cc1)P(=O)(O)O` (racemic), for which the IC50 was determined as 2600 nM in the assay on Plasmodium falciparum [2]; 160 nM in assay [3]; 1900 nM in the assay on Plasmodium falciparum [7]; 21 nM in assay [8]; 13 nM in assay [9]. Besides, the MIC (in the assay on Escherichia coli [4]; in assay [5]) was over 100 µM in each case. The “Ratio IC50” value in assay [6] is 90; in [10], 120.

A word on the MIC: it is the lowest concentration found to suppress growth. The term IC50 denotes the concentration at which inhibition is half-maximal.

These data come from ChEMBL document CHEMBL6121034, “Expanding the Chemical Space of Reverse Fosmidomycin Analogs” (ACS Med Chem Lett, 2025).
